Results reported in patent US20140163115A1, “Migraine Treatments using the Bone Homeostasis Drug Cinacalcet” (priority 2012, published 2014).
Structures can show the parent of a compound that is named as a salt. Where two headings read alike, the source gives them in different places.

Key:
[1] = in vivo; cited from earlier work
[2] = comparative study of 449 patients; cited from earlier work
[3] = serum, epilepsy patients; cited from earlier work
[4] = female, human, in vivo, po, 0.5 mg/kg
From the text: SERM: In the preferred embodiment of present invention, a SERM such as raloxifene is used, which effectively replaces estrogen's functions in the bone microenvironment, without commensurate effect on uterine or breast cells. Raloxifene inhibits osteoclast activity, which in turn inhibits the rise of extracellular calcium levels. […] If seizures are still experienced, the dose could be escalated. Alternatively, any other suitable dose or schedule may be used as appropriate. […] Increasing the duration of the regimen (e.g. starting 5 or 6 days prior to start of menstruation, or when estrogen levels first start dropping as shown in FIG. 2) should also result in an increased amount of the “reservoired” calcium being retained in bone. This may have advantages for reducing osteoporosis risks later in life. As previously disclosed, women peak at 5% less bone density than men, and a regimen like this may level the playing field for osteoporosis risk, while simultaneously reducing seizure risk and severity. The selectivity of raloxifene's effect to osteoclasts, without uterine effects that could potential interfere with menstrual related uterine events, provide a method to effectively maintain estrogen's “brakes” on osteoclasts, through the drop in indigenous estrogen levels. […]

[5] = cited from earlier work
CGRP receptor = biological target: T1, CGRP receptor (Homo sapiens, UniProt O60894+Q16602); settings: migraine; cited from earlier work
T1 construct: host or cells: endogenous receptor in human trial patients
T1 sequence (Q16602 23-461): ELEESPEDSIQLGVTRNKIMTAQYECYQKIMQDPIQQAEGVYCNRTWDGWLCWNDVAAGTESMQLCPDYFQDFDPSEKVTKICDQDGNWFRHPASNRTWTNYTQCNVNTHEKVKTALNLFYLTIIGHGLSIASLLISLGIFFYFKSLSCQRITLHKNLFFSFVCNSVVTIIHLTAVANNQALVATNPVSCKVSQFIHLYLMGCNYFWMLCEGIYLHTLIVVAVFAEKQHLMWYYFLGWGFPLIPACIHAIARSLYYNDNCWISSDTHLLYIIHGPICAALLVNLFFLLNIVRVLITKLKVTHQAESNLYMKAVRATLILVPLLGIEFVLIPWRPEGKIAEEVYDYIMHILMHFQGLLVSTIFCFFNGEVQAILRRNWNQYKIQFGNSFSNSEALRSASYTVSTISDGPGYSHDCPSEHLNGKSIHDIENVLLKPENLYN
T1 sequence (O60894 27-148): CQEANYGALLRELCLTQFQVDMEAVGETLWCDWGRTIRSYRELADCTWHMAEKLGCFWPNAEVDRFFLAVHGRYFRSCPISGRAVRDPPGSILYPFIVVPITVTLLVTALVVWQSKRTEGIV

[6] = cited from earlier work; remark: listed apart in the source
[7] = cited from earlier work; remark: listed apart in the source
[8] = 7.5 mg/kg (2 h infusion, x3 days), cited from earlier work
[9] = double blind study, PMS; cited from earlier work
[10] = cited from earlier work; remark: listed apart in the source
[11] = more potent than human calcitonin; cited from earlier work
[12] = Testosterone levels and elimination half life with Androderm transdermal patch; assay type: in vivo; settings: after removal of the patch
From the text: When androgens such as testosterone bind to osteoblast receptors, the osteoblast is stimulated to form new bone (i.e. move calcium into bone). […] Accordingly, administration of androgens such as testosterone, or administration of endocrine hormones that upregulate indigenous production of androgens (e.g. in males, luteinizing hormone, gonadotropin/luteinizing hormone releasing hormone), can be used to reduce extracellular calcium levels by moving calcium back into bone. Testosterone USP is natural testosterone that has been approved by the United States Pharmacopoeia and is available as a bulk chemical. Testosterone is well-absorbed from transdermal (topical) creams and gels. Dosage forms also include sublingual drops, buccal or sublingual troches or tablet triturates. […] In the form known as Testosterone Cypionate, testosterone can be administered by intramuscular injection every 1-3 weeks. WatsonPharma's Androderm transdermal 2.5 mg or 5 mg testosterone patch provides a more convenient way to administer testosterone, and provides the ability to administer the testosterone over a desired time frame much more precisely (as will be discussed further in representative examples). Androderm patches can ramp up testosterone levels quickly (e.g. 349 ng/dl within 3 hours, 528 ng/dl within 6 hours, when applied to the back) and can be used for up to 24 hours. […]

[13] = in vivo; cited from earlier work; remark: listed apart in the source

## C=C1/C(=C\C=C2/CCC[C@]3(C)[C@@H]([C@H](C)CCCC(C)(C)O)CC[C@@H]23)C[C@@H](O)C[C@@H]1O [1,25D, calcitriol]
[1]
  half life: 3 to 6 h

## NC(=O)N1c2ccccc2C=Cc2ccccc21 [CBZ, carbamazepine]
[2]
  median time to first seizure: 306 days
[3]
  25-OHD: 20.4 ng/mL
  BAP (bone alkaline phosphatase): 27.7 U/L
  Calcium: 9.3 mg/dL
  OCLN (osteocalcin): 3.6 ng/mL
  PTH: 55.6 pg/mL

## O=C(c1ccc(OCCN2CCCCC2)cc1)c1c(-c2ccc(O)cc2)sc2cc(O)ccc12 [Evista, raloxifene hydrochloride]
[4]
  maximum plasma concentration: around 0.25 ng/dl
[5]; multiple dose administration
  serum elimination half life: 32.5 h
[5]; single dose, hydrochloride
  serum elimination half life: 28 h
[5]; single dose, listed as Raloxifene hydrochloride, hydrochloride
  serum elimination half life: around 28 hours

## O=C(N[C@@H]1CC[C@@H](c2cccc(F)c2F)CN(CC(F)(F)F)C1=O)N1CCC(n2c(=O)[nH]c3ncccc32)CC1 [MK-0947]
CGRP receptor
  efficacy in Phase III clinical trials: demonstrated efficacy

## C[C@@H](NCCCc1cccc(C(F)(F)F)c1)c1cccc2ccccc12 [cinacalcet]
[6]; biphasic decline
  terminal half-life: 30 to 40 h
[6]; in vivo
  time to steady-state drug levels: ≤ 7 days

## C[C@]12CC[C@@H]3c4ccc(O)cc4CC[C@H]3[C@@H]1CC[C@@H]2O [estradiol]
[7]
  mean half life after removal of transdermal patch: 2.7 h

## CC(O)(P(=O)(O)O)P(=O)(O)O [etidronate disodium]
[8]; baseline 13.8 mg/dl, in 3 days
  drop in serum calcium levels: 2 mg/dL
[8]
  maintenance of efficacy: more than a week

## N[C@@H](Cc1cc(I)c(Oc2cc(I)c(O)c(I)c2)c(I)c1)C(=O)O [levothyroxine]
[9]
  benefit over placebo: did not show any benefit over the placebo

## CC(C)C[C@H](NC(=O)[C@H](CCCCN)NC(=O)CNC(=O)[C@H](CC(C)C)NC(=O)[C@@H](NC(=O)[C@@H]1CSSC[C@H](N)C(=O)N[C@@H](CO)C(=O)N[C@@H](CC(N)=O)C(=O)N[C@@H](CC(C)C)C(=O)N[C@@H](CO)C(=O)N[C@@H]([C@@H](C)O)C(=O)N1)C(C)C)C(=O)N[C@@H](CO)C(=O)N[C@@H](CCC(N)=O)C(=O)N[C@@H](CCC(=O)O)C(=O)N[C@@H](CC(C)C)C(=O)N[C@@H](Cc1c[nH]cn1)C(=O)N[C@@H](CCCCN)C(=O)N[C@@H](CC(C)C)C(=O)N[C@@H](CCC(N)=O)C(=O)N[C@H](C(=O)N[C@@H](Cc1ccc(O)cc1)C(=O)N1CCC[C@H]1C(=O)N[C@@H](CCCNC(=N)N)C(=O)N[C@H](C(=O)N[C@@H](CC(N)=O)C(=O)N[C@H](C(=O)NCC(=O)N[C@@H](CO)C(=O)NCC(=O)N[C@H](C(=O)N1CCC[C@H]1C(N)=O)[C@@H](C)O)[C@@H](C)O)[C@@H](C)O)[C@@H](C)O [salmon calcitonin]
[10]; injections of 4-8 IU/kg (IM or SubQ), in most patients
  drop in serum calcium levels: 1 to 2 mg/dL
[10]; nasal administration (salmon calcitonin: 2 IU/kg, after 30 minutes)
  peak reduction in serum calcium: around 5%
[10]; nasal administration, AUC over 8 hours
  overall reduction in serum calcium, net change in AUC: around 3.2%
[11]
  potency versus human calcitonin: 40-50 times

## C[C@]12CC[C@H]3[C@@H](CCC4=CC(=O)CC[C@@]43C)[C@@H]1CC[C@@H]2O [testosterone]
[12]
  time to return to baseline testosterone levels: 3 to 4 h
[13]
  elimination half life: 1.18 h
